From US7709498B2, “Quinoline derivatives as antibacterial agents” (Janssen Pharmaceutica N.V., priority 2005, dated 2010)
In brackets after ≈: the same amount, converted by molar mass.

Key:
Assay type in all cases: cell-based
[1] = system: Streptococcus pneumoniae (ATCC6305); experiment: Microtitre plate assay, IC90 determination, SPN 6305; conditions: 90% inhibitory concentration for bacterial growth, 37° C., resazurin fluorescence; for IC90 (μg/ml) SPN 6305: 24 hours; for IC90: Streptococcus pneumoniae, ATCC6305, 24 h, read-out: IC90 (μg/ml) SPN 6305
Procedure: (§1) The bacteria used in this study were grown overnight in flasks containing 100 ml Mueller-Hinton Broth (Becton Dickinson—cat. no. 275730) in sterile de-ionized water, with shaking, at 37° C. Stocks (0.5 ml/tube) were stored at −70° C. until use. Bacteria titrations were performed in microtiter plates to detect the TCID50, in which the TCID50 represents the dilution that gives rise to bacterial growth in 50% of inoculated cultures.
(§2) In general, an inoculum level of approximately 100 TCID50 was used for susceptibility testing.
(§3) Flat-bottom, sterile 96-well plastic microtiter plates were filled with 180 μl of sterile deionized water, supplemented with 0.25% BSA. Subsequently, stock solutions (7.8× final test concentration) of compounds were added in 45 μl volumes in column 2. Serial five-fold dilutions (45 μl in 180 μl) were made directly in the microtiter plates from column 2 to reach column 11. Untreated control samples with (column 1) and without (column 12) inoculum were included in each microtiter plate. Depending on the bacteria type, approximately 10 to 60 CFU per well of bacteria inoculum (100 TCID50), in a volume of 100 μl in 2.8× Mueller-Hinton broth medium, was added to the rows A to H, except column 12. The same volume of broth medium without inoculum was added to column 12 in row A to H. The cultures were incubated at 37° C. for 24 hours under a normal atmosphere (incubator with open air valve and continuous ventilation). At the end of incubation, one day after inoculation, the bacterial growth was quantitated fluorometrically. Therefore resazurin (0.6 mg/ml) was added in a volume of 20 μl to all wells 3 hours after inoculation, and the plates were re-incubated overnight. A change in colour from blue to pink indicated the growth of bacteria. The fluorescence was read in a computer-controlled fluorometer (Cytofluor Biosearch) at an excitation wavelength of 530 nm and an emission wavelength of 590 nm. The % growth inhibition achieved by the compounds was calculated according to standard methods. The IC90 (expressed in μg/ml) was defined as the 90% inhibitory concentration for bacterial growth.
(§4) BSU 3639 means Bacillus subtilis (ATCC43639); ECO 25922 means Escherichia coli (ATCC25922); EFA 14506 means Enterococcus faecalis (ATCC14506); EFA 29212 means Enterococcus faecalis (ATCC29212); LMO 49594 means Listeria monocytogenes (ATCC49594); PAE 27853 means Pseudomonas aeruginosa (ATCC27853); SMU 33402 means Streptococcus mutans (ATCC33402); SPN 6305 means Streptococcus pneumoniae (ATCC6305); SPY 8668 means Streptococcus pyogens (ATCC8668); STA 43300 means Staphylococcus aureus (ATCC43300); STA 25923 means Staphylococcus aureus (ATCC25923); STA 29213 means Staphylococcus aureus (ATCC29213); STA RMETH means methicilline resistant Staphylococcus aureus (MRSA) (a clinical isolate from the University of Antwerp). ATCC means American type tissue culture.

[2] = system: Pseudomonas aeruginosa (ATCC27853); experiment: Microtitre plate assay, IC90 determination, PAE 27853; conditions: 90% inhibitory concentration for bacterial growth, 37° C., resazurin fluorescence; for IC90: Pseudomonas aeruginosa, ATCC27853, 24 h, read-out: IC90 (μg/ml) PAE 27853
Procedure: as §1, §2, §3, §4

[3] = system: Streptococcus mutans (ATCC33402); experiment: Microtitre plate assay, IC90 determination, SMU 33402; conditions: Streptococcus mutans, ATCC33402, 24 h, 90% inhibitory concentration for bacterial growth, 37° C., resazurin fluorescence, read-out: IC90 (μg/ml) SMU 33402
Procedure: as §1, §2, §3, §4

[4] = system: Enterococcus faecalis (ATCC29212); experiment: Microtitre plate assay, IC90 determination, EFA 29212; conditions: 90% inhibitory concentration for bacterial growth, 37° C., resazurin fluorescence; for IC90: Enterococcus faecalis, ATCC29212, 24 h, read-out: IC90 (μg/ml) EFA 29212
Procedure: as §1, §2, §3, §4

[5] = system: Listeria monocytogenes (ATCC49594); experiment: Microtitre plate assay, IC90 determination, LMO 49594; conditions: 90% inhibitory concentration for bacterial growth, 37° C., resazurin fluorescence; for IC90: Listeria monocytogenes, ATCC49594, 24 h, read-out: IC90 (μg/ml) LMO 49594; for IC90 (μg/ml) LMO 49594: 24 hours
Procedure: as §1, §2, §3, §4

[6] = system: Bacillus subtilis (ATCC43639); experiment: Microtitre plate assay, IC90 determination, BSU 43639; conditions: Bacillus subtilis, ATCC43639, 24 h, 90% inhibitory concentration for bacterial growth, 37° C., resazurin fluorescence, read-out: IC90 (μg/ml) BSU 43639
Procedure: as §1, §2, §3, §4

[7] = system: Staphylococcus aureus (ATCC43300); experiment: Microtitre plate assay, IC90 determination, STA 43300; conditions: 90% inhibitory concentration for bacterial growth, 37° C., resazurin fluorescence; for IC90: Staphylococcus aureus, ATCC43300, 24 h, read-out: IC90 (μg/ml) STA 43300
Procedure: as §1, §2, §3, §4

[8] = system: Streptococcus pyogens (ATCC8668); experiment: Microtitre plate assay, IC90 determination, SPY 8668; conditions: 90% inhibitory concentration for bacterial growth, 37° C., resazurin fluorescence; for IC90: Streptococcus, ATCC8668, 24 h, read-out: IC90 (μg/ml) SPY 8668; for IC90 (μg/ml) SPY 8668: 24 hours
Procedure: as §1, §2, §3, §4

[9] = system: Staphylococcus aureus (ATCC25923); experiment: Microtitre plate assay, IC90 determination, STA 25923; conditions: 90% inhibitory concentration for bacterial growth, 37° C., resazurin fluorescence; for IC90: Staphylococcus aureus, ATCC25923, 24 h, read-out: IC90 (μg/ml) STA 25923
Procedure: as §1, §2, §3, §4

[10] = system: Enterococcus faecalis (ATCC14506); experiment: Microtitre plate assay, IC90 determination, EFA 14506; conditions: Enterococcus faecalis, ATCC14506, 24 h, 90% inhibitory concentration for bacterial growth, 37° C., resazurin fluorescence, read-out: IC90 (μg/ml) EFA 14506
Procedure: as §1, §2, §3, §4

IC90 [2] [µg/mL]	IC90 [3] [µg/mL]	IC90 [4] [µg/mL]	IC90 [5] [µg/mL]	IC90 [6] [µg/mL]	IC90 [1] [µg/mL]	Compound	further results
11 (≈ 20 µM)			11 (≈ 20 µM)			COc1nc2ccc(Br)cc2cc1C(c1ccccc1)C(O)(CCN(C)C)c1ccc2c(c1)OCO2 (centres unmarked) [Compound 76]	
11.2 (≈ 19.9 µM)					14.2 (≈ 25.2 µM)	COc1nc2ccc(Br)cc2cc1C(c1ccccc1)C(O)(CCN(C)C)c1ccc2c(c1)OCCO2 (centres unmarked) [Compound 77]	
11.7 (≈ 22.4 µM)		11.7 (≈ 22.4 µM)				COc1nc2ccc(Br)cc2cc1C(c1ccccc1)C(O)(CCN(C)C)c1cccc(F)c1 (centres unmarked) [Compound 109]	IC90 (μg/ml) SPN 6305 [1]: 13.1 µg/mL (≈ 25 µM); IC90 [9]: 10.4 µg/mL (≈ 19.9 µM); IC90 (μg/ml) LMO 49594 [5]: 9.3 µg/mL (≈ 17.8 µM); IC90 [7]: 13.1 µg/mL (≈ 25 µM); IC90 (μg/ml) SPY 8668 [8]: 13.1 µg/mL (≈ 25 µM)
12.3 (≈ 19.9 µM)		12.3 (≈ 19.9 µM)	12.3 (≈ 19.9 µM)	12.3 (≈ 19.9 µM)		COc1nc2ccc(Br)cc2cc1C(c1ccccc1)C(O)(CCN(C)C)C1CCN(C(=O)c2ccccc2)CC1 (centres unmarked) [Compound 201]	
				11.4 (≈ 19.9 µM)		COc1nc2ccc(-c3ccc(CO)o3)cc2cc1C(c1ccccc1)C(O)(CCN(C)C)c1cccc2ccccc12 (centres unmarked) [Compound 212]	
		10.8 (≈ 20 µM)	10.8 (≈ 20 µM)	13.6 (≈ 25.2 µM)		COc1nc2ccc(-c3cccnc3)cc2cc1C(c1ccccc1)C(O)(CCN(C)C)c1cc(F)cc(F)c1 (centres unmarked) [Compound G]	

More lines, now with the values behind:

Compound	IC90 [2] [µg/mL]	IC90 [3] [µg/mL]	IC90 [4] [µg/mL]	IC90 [5] [µg/mL]	IC90 [6] [µg/mL]	IC90 [1] [µg/mL]	further results
COc1nc2ccc(Br)cc2cc1C(c1ccc(Cl)cc1)C(O)(CCN(C)C)c1ccccc1 (centres unmarked) [Compound 36]	4.8 (≈ 8.89 µM)	3.8 (≈ 7.04 µM)	4.8 (≈ 8.89 µM)	5.4 (≈ 10 µM)	24.1 (≈ 44.6 µM)		IC90 (μg/ml) SPN 6305 [1]: 2.7 µg/mL (≈ 5 µM); IC90 [7]: 4.8 µg/mL (≈ 8.89 µM); IC90 [8]: 0.4 µg/mL (≈ 0.741 µM)
COc1nc2ccc(Br)cc2cc1C(c1ccccc1)C(O)(CCN(C)C)c1cccc(F)c1 (centres unmarked) [Compound 39]		11.7 (≈ 22.4 µM)					IC90 (μg/ml) SPN 6305 [1]: 5.9 µg/mL (≈ 11.3 µM); IC90 (μg/ml) PAE 27853 ([2]; 24 hours): 10.4 µg/mL (≈ 19.9 µM); IC90 (μg/ml) STA 25923 ([9]; 24 hours): 10.4 µg/mL (≈ 19.9 µM); IC90 (μg/ml) EFA 29212 ([4]; 24 hours): 10.4 µg/mL (≈ 19.9 µM); IC90 (μg/ml) LMO 49594 [5]: 4.7 µg/mL (≈ 8.98 µM); IC90 (μg/ml) STA 43300 ([7]; 24 hours): 13.1 µg/mL (≈ 25 µM); IC90 (μg/ml) SPY 8668 [8]: 1.9 µg/mL (≈ 3.63 µM)
COc1nc2ccc(Br)cc2cc1C(c1ccccc1)C(O)(CCN)c1ccccc1 (centres unmarked) [Compound 44]					7.6 (≈ 15.9 µM)		IC90 [9]: 7.6 µg/mL (≈ 15.9 µM)
COc1nc2ccc(Br)cc2cc1C(c1ccccc1)C(O)(CCN(C)C)c1ccc2ccccc2c1 (centres unmarked) [Compound 46]	5 (≈ 9 µM)	5.6 (≈ 10.1 µM)	5 (≈ 9 µM)	2.8 (≈ 5.04 µM)		2.8 (≈ 5.04 µM)	IC90 [7]: 5.6 µg/mL (≈ 10.1 µM); IC90 [8]: 0.6 µg/mL (≈ 1.08 µM)
COc1nc2ccc(Br)cc2cc1C(c1ccccc1)C(O)(CCN1CCCCC1)c1ccccc1 (centres unmarked) [Compound 48]	10.9 (≈ 20 µM)	10.9 (≈ 20 µM)		10.9 (≈ 20 µM)		13.7 (≈ 25.1 µM)	IC90 [8]: 13.7 µg/mL (≈ 25.1 µM)
COc1nc2ccc(Br)cc2cc1C(c1ccccc1)C(O)(CCN(C)C)c1ccccc1F (centres unmarked) [Compound 69]	10.4 (≈ 19.9 µM)			10.4 (≈ 19.9 µM)		13.1 (≈ 25 µM)	
COc1nc2ccc(Br)cc2cc1C(c1ccccc1)C(O)(CCN1CCCCC1)c1ccc2cc(Br)ccc2c1 (centres unmarked) [Compound 155]							IC90 [10]: 26.9 µg/mL (≈ 39.9 µM)
